# From paper PMC4028696, “Development of a screen to identify selective small molecules active against patient-derived metastatic and chemoresistant breast cancer cells” (Breast Cancer Research : BCR, 2013)
# Assays:
# Assay type in all cases: cell-based, human
# T47D cells = experiment: BrdU proliferation and cell cycle analysis; conditions: 15 μM, 24 or 48 hours vs DMSO
# Description: (§1) Cells were seeded in six-well plates (BD Falcon) in their respective media at different densities to attain 70% to 80% confluency at the end of the assay. In order to compare the proliferation rate of established cell lines compared to patient-derived cells, 10 μM of 5-bromo-2-deoxyuridine (BrdU) (Sigma) was added to the culture media for 30 minutes or 6 hours in triplicate. To determine the impact of C-6 on the cell cycle, cells were treated with 15 μM C-6 or 0.02% (v/v) DMSO vehicle in the corresponding media containing 2% FBS for 24 and 48 hours in triplicate followed by treatment with 10 μM BrdU for 30 minutes. Immediately following BrdU treatment, floating cells were collected and adherent cells were trypsinized. Floating and adherent cells were combined, washed with HBSS containing 2% FBS, fixed with 70% ethanol and stored overnight at -20°C. Cells were then treated with 2 M HCl containing 0.5% Triton X-100 (EMD Millipore) for 30 minutes at room temperature and were washed with 0.1 M sodium tetraborate (Sigma) at pH = 8.5. Next, cells were blocked with staining buffer, which consisted of 1% BSA, 0.5% Tween-20 (Fisher Scientific) in PBS, for five minutes and were stained with a mouse monoclonal BrdU antibody (Developmental Studies Hybridoma Bank, Iowa City, IA, USA) for one hour on ice. Cells were subsequently washed and stained with anti-mouse Alexa Fluor® 488 (Life Technologies) for 30 minutes on ice, washed, stained with 5 μg/mL of propidium iodide (EMD Millipore) and passed through a 70-μm cell strainer. Cell suspensions were analyzed using a FACScan flow cytometer and the resulting data were analyzed with Flow Jo software. The average ± SD of three wells for each condition was calculated.
# MCF-7 cells = experiment: BrdU proliferation and cell cycle analysis; conditions: MCF-7, 15 μM, 24 or 48 hours vs DMSO
# Description: as §1
# MDA-MB-231 cells = experiment: BrdU proliferation and cell cycle analysis; conditions: MDA-MB-231, 15 μM, 24 or 48 hours vs DMSO
# Description: as §1
# MCF-10A cells = experiment: BrdU proliferation and cell cycle analysis; conditions: 15 μM, 24 or 48 hours vs DMSO
# Description: as §1
# [1] = system: PE904557a, PE900642a and PE1100025 cells; experiment: Live/dead assay, three-dimensional Matrigel culture; conditions: 30 or 60 μM, five days
# Description: For the three dimensional culture experiments, PE904557a, PE900642a and PE11000025 cells were seeded in a 24-well ultra low adhesion plate (Costar) at approximately 2 × 10^6 cells/mL in mammary epithelial cell growth medium (MEGM) complete media (Lonza, Basel Switzerland) and were cultured overnight. The resulting aggregates were separated from single cells by differential centrifugation. Next, 20 μL of growth factor reduced Matrigel (BD Biosciences) was added to each well of a black walled clear bottom 24-well plate (Greiner Bio-one) and was allowed to solidify to form a base layer. The aggregates were then suspended in Matrigel on ice and approximately 300 aggregates in 40 μL were added to each well. After the Matrigel solidified, modified M87 media was added to each well and the cells were cultured overnight. The media were subsequently aspirated and the cells were treated with 30 or 60 μM C-6 or the corresponding 0.06% (v/v) DMSO vehicle control. After culturing for five days, the viability and cytotoxicity were determined utilizing the Live/dead assay (Life Technologies) in the same manner as described above. Multiple Z-planes of the organoids were subsequently imaged utilizing an IX81 microscope (Olympus) running Slide Book 5.0 software (Intelligent Imaging Innovations).
smiles,measurement,setting,value
COc1cc(OC)cc(C(C)c2ccc(NC(=O)OC(C)(C)C)cc2)c1 (centres unmarked) [C-6],percentage of cells in G1/G0,T47D cells,increased
same,percentage of cells in G1/G0,MCF-7 cells,increased
same,percentage of cells in G1/G0,MDA-MB-231 cells,increased
same,cell cycle profile,MCF-10A cells,did not show a statistically significant difference
same,cell death in three-dimensional culture,[1],able to induce cell death
